Reference: ChEMBL document CHEMBL1132055, “1-Aminoisoquinoline as benzamidine isoster in the design and synthesis of orally active thrombin inhibitors” (Bioorg Med Chem Lett, 1999)

What was measured:
[1] = target: Serine protease 1 (Homo sapiens, UniProt P07477); assay: Compound was tested for inhibitory activity against trypsin
[2] = target: Prothrombin (Homo sapiens, UniProt P00734); assay: Compound was tested for inhibitory activity against thrombin
[3] = system: Caco-2; settings: Homo sapiens
Description: Compound was tested for its effect on increasing the permeability of Caco-2 cells

Serine protease 1, sequence (P07477 whole entry): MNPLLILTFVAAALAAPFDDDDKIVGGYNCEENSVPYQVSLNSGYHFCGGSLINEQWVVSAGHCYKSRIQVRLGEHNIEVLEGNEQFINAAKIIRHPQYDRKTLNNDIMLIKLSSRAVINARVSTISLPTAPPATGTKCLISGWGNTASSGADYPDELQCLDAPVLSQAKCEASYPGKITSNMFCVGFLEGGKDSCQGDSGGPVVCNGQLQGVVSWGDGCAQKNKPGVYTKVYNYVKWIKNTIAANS

Row | IC50 [1] | IC50 [2] | Structure (SMILES) | Papp [3]
1 | 378 µM | – | COc1cc(C)c(S(=O)(=O)N[C@@H](CC(=O)OC(C)(C)C)C(=O)NC(Cc2ccc3c(N)nccc3c2)C(=O)N2CCCCC2)c(C)c1C (stereo partly specified) | –
2 | – | 357 µM | Cc1ccc(S(=O)(=O)NCC(=O)NC(Cc2ccc3c(N)nccc3c2)C(=O)N2CCCCC2)cc1 (stereo unspecified) | –
3 | 255 µM | 55 µM | Nc1nccc2cc(CC(NC(=O)CNS(=O)(=O)c3ccc4ccccc4c3)C(=O)N3CCCCC3)ccc12 (stereo unspecified) | 1.9 ×10⁻⁶ cm/s
4 | – | – | Cc1c(C)c(S(=O)(=O)NCC(=O)NC(Cc2ccc3c(N)nccc3c2)C(=O)N2CCCCC2)c(C)c2c1OC(C)(C)CC2 (stereo unspecified) | 3.7 ×10⁻⁶ cm/s
